For 14 molecules, pest or weed control results are on record in patent US9179674B2, “Macrocyclic picolinamide compounds with fungicidal activity” (DOW AGROSCIENCES LLC, priority 2013, dated 2015).

Holding throughout (assay type): in vivo
For assay [1], the system named is Mycosphaerella graminicola; Anamorph: Septoria tritici. Nature of the assay: Leaf Blotch of Wheat fungicidal activity (SEPTTR). The conditions noted are these: Zymoseptoria tritici; for pest or weed control at 100 ppm: rate 100 ppm; for pest or weed control at 121.5 g/ha: rate 121.5 g/H. The essentials:
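Acetone solutions diluted with nine volumes of water containing 110 ppm Triton X-100, sprayed to run-off on first-leaf wheat seedlings (Yuma), inoculated with S. tritici before or after treatment. Plants held in dew chambers, then in a 20 °C greenhouse. Disease severity (0–100%) scored when untreated plants fully symptomatic; % control relative to untreated.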

The test system of the next assay is Erysiphe cichoracearum. The assay can be described thus: Powdery Mildew of Cucumber fungicidal activity (ERYSCI). The following applies: Golovinomyces cichoracearum, 24 h, 1 Day Protectant, read-out: Disease Control ERYSCI 1DP. How it is done: Technical grades of materials were dissolved in acetone, which were then mixed with nine volumes of water containing 110 ppm Triton X-100. The fungicide solutions were applied onto wheat seedlings using an automated booth sprayer to run-off. All sprayed plants were allowed to air dry prior to further handling. All fungicides were evaluated using the aforementioned method for their activity vs. all target diseases. Wheat leaf blotch and brown rust activity were also evaluated using track spray applications, in which case the fungicides were formulated as EC formulations, containing 0.1% Trycol 5941 in the spray solutions. Wheat plants (variety Yuma) were grown from seed in a greenhouse in 50% mineral soil/50% soil-less Metro mix until the first leaf was fully emerged, with 7-10 seedlings per pot. These plants were inoculated with an aqueous spore suspension of Septoria tritici either prior to or after fungicide treatments. After inoculation the plants were kept in 100% relative humidity (one day in a dark dew chamber followed by two to three days in a lighted dew chamber at 20° C.) to permit spores to germinate and infect the leaf. The plants were then transferred to a greenhouse set at 20° C. for disease to develop. When disease symptoms were fully expressed on the 1st leaves of untreated plants, infection levels were assessed on a scale of 0 to 100 percent disease severity. Percent disease control was calculated using the ratio of disease severity on treated plants relative to untreated plants. Evaluation of Fungicidal Activity: Powdery Mildew of Cucumber (Erysiphe cichoracearum; Bayer Code […]) Cucumber seedlings (variety Bush Pickle) were grown in soil-less Metro mix, with one plant per pot, and used in the test when 12 to 14 days old. Plants were inoculated with a spore suspension 24 hr following fungicide treatments. After inoculation the plants remained in the greenhouse set at 20° C. until disease was fully expressed. Fungicide formulation, application and disease assessment on the sprayed leaves followed the procedures as described in the Example A.

In assay [2] the test system is Glomerella lagenarium; Anamorph: Colletotrichum lagenarium. Nature of the assay: Cucumber Anthracnose fungicidal activity (COLLLA). The following applies: Colletotrichum orbiculare, 24 h, 1 Day Protectant, read-out: Disease Control COLLLA 1DP. How it is done: Technical grades of materials were dissolved in acetone, which were then mixed with nine volumes of water containing 110 ppm Triton X-100. The fungicide solutions were applied onto wheat seedlings using an automated booth sprayer to run-off. All sprayed plants were allowed to air dry prior to further handling. All fungicides were evaluated using the aforementioned method for their activity vs. all target diseases. Wheat leaf blotch and brown rust activity were also evaluated using track spray applications, in which case the fungicides were formulated as EC formulations, containing 0.1% Trycol 5941 in the spray solutions. Wheat plants (variety Yuma) were grown from seed in a greenhouse in 50% mineral soil/50% soil-less Metro mix until the first leaf was fully emerged, with 7-10 seedlings per pot. These plants were inoculated with an aqueous spore suspension of Septoria tritici either prior to or after fungicide treatments. After inoculation the plants were kept in 100% relative humidity (one day in a dark dew chamber followed by two to three days in a lighted dew chamber at 20° C.) to permit spores to germinate and infect the leaf. The plants were then transferred to a greenhouse set at 20° C. for disease to develop. When disease symptoms were fully expressed on the 1st leaves of untreated plants, infection levels were assessed on a scale of 0 to 100 percent disease severity. Percent disease control was calculated using the ratio of disease severity on treated plants relative to untreated plants. Evaluation of Fungicidal Activity: Cucumber Anthracnose (Glomerella lagenarium; Anamorph: Colletotrichum lagenarium; Bayer Code COLLLA) Cucumber seedlings (variety Bush Pickle) were propagated in soil-less Metro mix, with each pot having one plant, and used in the test when 12 to 14 days old. Test plants were inoculated with an aqueous spore suspension of Colletotrichum lagenarium 24 hr after fungicide treatments. After inoculation the plants were kept in a dew room at 22° C. with 100% relative humidity for 48 hr to permit spores to germinate and infect the leaf. The plants were then transferred to a growth room set at 22° C. for disease to develop. Fungicide formulation, application and disease assessment on the sprayed leaves followed the procedures as described in the Example A.

For assay [3], the system named is Magnaporthe grisea; Anamorph: Pyricularia oryzae. The assay can be described thus: whole plant or invertebrate. The conditions noted are these: 24 h, read-out: Disease Control PYRIOR 1DP.
Setting [4] is: 24 h, 1 Day Protectant, read-out: Disease control SEPTTR 1DP.
Where [5] appears, read: 72 h, 3 Day Curative, read-out: Disease control SEPTTR 3DC.

Where two headings read alike, the source gives them in different places.

Regarding `COc1ccnc(C(=O)N[C@H]2COC[C@H](Cc3ccc(F)cc3)[C@@H](OCC(C)C)[C@H](C)OC2=O)c1OC(C)=O` [Compound F60], the pest or weed control at 100 ppm (in assay [1] (setting [4]); in assay [1] (setting [5]); in the assay with Erysiphe cichoracearum) was 80 to 100% throughout. Moreover, the pest or weed control at 121.5 g/ha in assay [1] (setting [4]) and in assay [1] (setting [5]) was 80 to 100% throughout.

With `COc1ccnc(C(=O)N[C@H]2COC[C@H](Cc3ccc(Cl)cc3Cl)[C@@H](OC(=O)C(C)C)[C@H](C)OC2=O)c1OC(C)=O` [Compound F73], the pest or weed control at 100 ppm in assay [1] (setting [4]) was in the range of 80 to 100%; in assay [1] (setting [5]) it was 80 to 100%; in assay [2], 80 to 100%; in the assay with Erysiphe cichoracearum it was 0 to 80%; in assay [3] it was 80 to 100%. Moreover, the pest or weed control at 121.5 g/ha in assay [1] (setting [4]) and in assay [1] (setting [5]) was 80 to 100% each time.

For the molecule `COc1ccnc(C(=O)N[C@H]2COC[C@H](Cc3ccc(C)cc3)[C@@H](OCC(C)C)[C@H](C)OC2=O)c1OC(C)=O` [Compound F80], the pest or weed control at 100 ppm (in assay [1] (setting [4]); in assay [1] (setting [5]); in assay [2]; in the assay on Erysiphe cichoracearum; in assay [3]) was 80 to 100% each time. In addition, the pest or weed control at 121.5 g/ha in assay [1] (setting [4]) and in assay [1] (setting [5]) was 80 to 100% throughout.

On to `COc1ccnc(C(=O)N[C@H]2COC[C@H](CCc3ccccc3)[C@@H](OCC(C)C)[C@H](C)OC2=O)c1OCOC(C)=O` [Compound F82], for which the pest or weed control at 100 ppm was 80 to 100% in assay [1] (setting [4]); 80 to 100% in assay [1] (setting [5]); 80 to 100% in assay [2]; 0 to 80% with Erysiphe cichoracearum; 80 to 100% in assay [3]. In addition, the pest or weed control at 121.5 g/ha in assay [1] (setting [4]) and in assay [1] (setting [5]) was 80 to 100% in each case.

`COc1ccnc(C(=O)N[C@H]2COC[C@H](Cc3cccc4ccccc34)[C@@H](OC(=O)C(C)C)[C@H](C)OC2=O)c1OCOC(C)=O` [Compound F83, (3S,6S,7R,8S)-3-(3-(acetoxymethoxy)-4-methoxypicolin-amido)-6-methyl-8-(naphthalen-1-ylmethyl)-4-oxo-1,5-dioxonan-7-yl isobutyrate]: the pest or weed control at 100 ppm in assay [1] (setting [4]), in assay [1] (setting [5]), in assay [2] and in assay [3] was 80 to 100% throughout. The pest or weed control at 121.5 g/ha in assay [1] (setting [4]) fell in the range of 0 to 80%; in assay [1] (setting [5]), 80 to 100%.

For `COc1ccnc(C(=O)N[C@H]2COC[C@H](Cc3ccc(F)cc3)[C@@H](OCC(C)C)[C@H](C)OC2=O)c1OCOC(C)=O` [Compound F96], the pest or weed control at 100 ppm (in assay [1] (setting [4]); in assay [1] (setting [5]); in assay [2]; with Erysiphe cichoracearum; in assay [3]) was 80 to 100% in each case. Further, the pest or weed control at 121.5 g/ha in assay [1] (setting [4]) and in assay [1] (setting [5]) was 80 to 100% in each case.

Consider `COc1ccnc(C(=O)N[C@H]2COC[C@H](CC(F)(F)F)[C@@H](OC3CCCC3)[C@H](C)OC2=O)c1OCOC(C)=O` [Compound F105], for which the pest or weed control at 100 ppm in assay [1] (setting [4]) lay in the range of 80 to 100%; in assay [1] (setting [5]), 80 to 100%; in assay [2] it was 80 to 100%; in the assay with Erysiphe cichoracearum, 0 to 80%; in assay [3] it was 80 to 100%. In addition, the pest or weed control at 121.5 g/ha in assay [1] (setting [4]) and in assay [1] (setting [5]) was 80 to 100% throughout.

Consider `COc1ccnc(C(=O)N[C@H]2COC[C@H](CCC(C)C)[C@@H](OCCCC(F)(F)F)[C@H](C)OC2=O)c1OCOC(C)=O` [Compound F107], for which the pest or weed control at 100 ppm (in assay [1] (setting [4]); in assay [1] (setting [5]); in the assay with Erysiphe cichoracearum; in assay [3]) was 80 to 100% throughout. Besides, the pest or weed control at 121.5 g/ha in assay [1] (setting [4]) and in assay [1] (setting [5]) was 80 to 100% throughout.

On to `COc1ccnc(C(=O)N[C@H]2COC[C@H](CCC(C)C)[C@@H](OC(=O)C3CC3)[C@H](C)OC2=O)c1OCOC(C)=O` [Compound F108], for which the pest or weed control at 100 ppm (in assay [1] (setting [4]); in assay [1] (setting [5]); in the assay on Erysiphe cichoracearum; in assay [3]) was 80 to 100% in each case. The pest or weed control at 121.5 g/ha in assay [1] (setting [4]) and in assay [1] (setting [5]) was 80 to 100% each time.

Consider `COc1ccnc(C(=O)N[C@H]2COC[C@H](Cc3ccc(Cl)cc3Cl)[C@@H](OC(=O)C(C)C)[C@H](C)OC2=O)c1OCOC(C)=O` [Compound F110], for which the pest or weed control at 100 ppm fell in the range of 80 to 100% in assay [1] (setting [4]); 80 to 100% in assay [1] (setting [5]); 80 to 100% in assay [2]; 0 to 80% in the assay on Erysiphe cichoracearum; 80 to 100% in assay [3]. Moreover, the pest or weed control at 121.5 g/ha in assay [1] (setting [4]) and in assay [1] (setting [5]) was 80 to 100% each time.

Regarding `COc1ccnc(C(=O)N[C@H]2COC[C@H](CC3CCCC3)[C@@H](OC(=O)C(C)C)[C@H](C)OC2=O)c1OCOC(C)=O` [Compound F114], the pest or weed control at 100 ppm (in assay [1] (setting [4]); in assay [1] (setting [5]); in assay [2]; in the assay on Erysiphe cichoracearum; in assay [3]) was 80 to 100% in each case. Further, the pest or weed control at 121.5 g/ha in assay [1] (setting [4]) and in assay [1] (setting [5]) was 80 to 100% throughout.

For the molecule `COc1ccnc(C(=O)N[C@H]2COC[C@H](Cc3ccc(C)cc3)[C@@H](OCC(C)C)[C@H](C)OC2=O)c1OCOC(C)=O` [Compound F117], the pest or weed control at 100 ppm (in assay [1] (setting [4]); in assay [1] (setting [5]); in assay [2]; with Erysiphe cichoracearum; in assay [3]) was 80 to 100% each time. Moreover, the pest or weed control at 121.5 g/ha in assay [1] (setting [4]) and in assay [1] (setting [5]) was 80 to 100% in each case.

As for `CCCCCO[C@@H]1[C@@H](Cc2ccc(Cl)cc2Cl)COC[C@H](NC(=O)c2nccc(OC)c2OCOC(=O)COCC)C(=O)O[C@H]1C` [Compound F122], the pest or weed control at 121.5 g/ha in assay [1] (setting [4]) lay in the range of 80 to 100%. The pest or weed control at 100 ppm in assay [2] is 80 to 100%; in the assay on Erysiphe cichoracearum, 0 to 80%.

In the case of `CCCCCO[C@@H]1[C@@H](Cc2ccc(Cl)cc2Cl)COC[C@H](NC(=O)c2nccc(OC)c2OC(=O)CCOC)C(=O)O[C@H]1C` [Compound F123], the pest or weed control at 121.5 g/ha in assay [1] (setting [4]) was in the range of 80 to 100%. Also, the pest or weed control at 100 ppm (in assay [2]; with Erysiphe cichoracearum) was 80 to 100% each time.
